What was measured:
Experiment in all cases: MIC by broth microdilution (antibacterial and synergistic activity)
Type in all cases: cell-based
[1] = system: E. coli 8739 (strain 2, CTX-M15); conditions: strain 2 (CTX-M15); compound alone, no antibiotic
Outline: (§1)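 Test agents were tested singly or as pairs, each inhibitor kept at 4 mg/L while meropenem or imipenem was serially diluted in cation-adjusted Mueller-Hinton broth. Bacteria were added at roughly 5×10^5 CFU/mL and incubated 18-24 hours at 37° C before visual MIC reading.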

[2] = system: E. cloacae clinical isolate (strain 5, P99); conditions: strain 5 (P99)
Outline: as §1

[3] = system: K. pneumoniae 700603 (strain 4, KPC-3, TEM-1); conditions: strain 4 (KPC-3, TEM-1)
Outline: as §1

[4] = system: E. cloacae 700323 (strain 6, AmpC); conditions: strain 6 (AmpC)
Outline: as §1

[5] = system: A. baumannii 19606 (strain 8, OXA-24); conditions: strain 8 (OXA-24)
Outline: as §1

[6] = system: K. pneumoniae clinical isolate (strain 3, SHV-1); conditions: strain 3 (SHV-1)
Outline: as §1

[7] = system: P. aeruginosa clinical isolate (strain 9, KPC-2); conditions: strain 9 (KPC-2)
Outline: as §1

[8] = system: E. coli clinical isolate (strain 1, TEM-1); conditions: strain 1 (TEM-1)
Outline: as §1

[9] = system: P. aeruginosa 9027 (strain 10, AmpC); conditions: strain 10 (AmpC)
Outline: as §1

[10] = system: A. baumannii clinical isolate (strain 7, OXA-23, OXA-40); conditions: strain 7 (OXA-23/40)
Outline: as §1

## N=C(NS(=O)(=O)CC(F)(F)F)[C@@H]1CC[C@@H]2CN1C(=O)N2OS(=O)(=O)[O-].[Na+] [Ex. 1, Sodium (2S,5R)-7-oxo-2-(N-((2,2,2-trifluoroethyl)sulfonyl)caramimidoyl)-1,6-diazabicyclo[3.2.1]octan-6-yl sulfate]
[1]
  Antibacterial activity, MIC, inhibitor Alone: >64 µg/mL
[2]; compound alone, no antibiotic
  Antibacterial activity, MIC, inhibitor Alone: >64 µg/mL
[2]; inhibitor at constant 4 mg/L
  MIC of imipenem in combination with the inhibitor (IMI + inhibitor): 1 µg/mL
  MIC of meropenem in combination with the inhibitor (MER + inhibitor): <0.125 µg/mL
[3]; compound alone, no antibiotic
  Antibacterial activity, MIC, inhibitor Alone: >64 µg/mL
[3]; inhibitor at constant 4 mg/L
  MIC of imipenem in combination with the inhibitor (IMI + inhibitor): 0.25 µg/mL
  MIC of meropenem in combination with the inhibitor (MER + inhibitor): <0.125 µg/mL
[4]; compound alone, no antibiotic
  Antibacterial activity, MIC, inhibitor Alone: >64 µg/mL
[4]; inhibitor at constant 4 mg/L
  MIC of imipenem in combination with the inhibitor (IMI + inhibitor): 0.0625 µg/mL
  MIC of meropenem in combination with the inhibitor (MER + inhibitor): <0.125 µg/mL
[5]; compound alone, no antibiotic
  Antibacterial activity, MIC, inhibitor Alone: >64 µg/mL
[5]; inhibitor at constant 4 mg/L
  MIC of imipenem in combination with the inhibitor (IMI + inhibitor): 0.062 µg/mL
  MIC of meropenem in combination with the inhibitor (MER + inhibitor): 0.5 µg/mL
[6]; compound alone, no antibiotic
  Antibacterial activity, MIC, inhibitor Alone: >64 µg/mL
[6]; inhibitor at constant 4 mg/L
  MIC of imipenem in combination with the inhibitor (IMI + inhibitor): 0.25 µg/mL
  MIC of meropenem in combination with the inhibitor (MER + inhibitor): 0.125 µg/mL
[7]; compound alone, no antibiotic
  Antibacterial activity, MIC, inhibitor Alone: >64 µg/mL
[7]; inhibitor at constant 4 mg/L
  MIC of imipenem in combination with the inhibitor (IMI + inhibitor): 0.25 µg/mL
  MIC of meropenem in combination with the inhibitor (MER + inhibitor): 0.125 µg/mL
[8]; compound alone, no antibiotic
  Antibacterial activity, MIC, inhibitor Alone: >64 µg/mL
[8]; inhibitor at constant 4 mg/L
  MIC of imipenem in combination with the inhibitor (IMI + inhibitor): 0.125 µg/mL
  MIC of meropenem in combination with the inhibitor (MER + inhibitor): <0.125 µg/mL
[9]; compound alone, no antibiotic
  Antibacterial activity, MIC, inhibitor Alone: >64 µg/mL
[9]; inhibitor at constant 4 mg/L
  MIC of imipenem in combination with the inhibitor (IMI + inhibitor): 0.5 µg/mL
  MIC of meropenem in combination with the inhibitor (MER + inhibitor): 0.125 µg/mL
[10]; compound alone, no antibiotic
  Antibacterial activity, MIC, inhibitor Alone: >64 µg/mL
[10]; inhibitor at constant 4 mg/L
  MIC of imipenem in combination with the inhibitor (IMI + inhibitor): 0.0625 µg/mL
  MIC of meropenem in combination with the inhibitor (MER + inhibitor): <0.125 µg/mL
